Measured values reported in ChEMBL document CHEMBL3991601, “The target landscape of clinical kinase drugs” (Science, 2017).
Activity calls are given as the source filed them.

Tests used:
dCTP pyrophosphatase 1 = target: T1, dCTP pyrophosphatase 1 (Homo sapiens, UniProt Q9H773)
T1 sequence (Q9H773 whole entry): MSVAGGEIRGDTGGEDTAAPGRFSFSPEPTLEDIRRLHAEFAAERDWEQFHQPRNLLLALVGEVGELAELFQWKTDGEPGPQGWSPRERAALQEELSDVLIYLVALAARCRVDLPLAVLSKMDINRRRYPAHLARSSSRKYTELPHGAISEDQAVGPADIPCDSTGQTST

Scaffold protein ILK = target: T2, Scaffold protein ILK (Homo sapiens, UniProt Q13418)
T2 sequence (Q13418 whole entry): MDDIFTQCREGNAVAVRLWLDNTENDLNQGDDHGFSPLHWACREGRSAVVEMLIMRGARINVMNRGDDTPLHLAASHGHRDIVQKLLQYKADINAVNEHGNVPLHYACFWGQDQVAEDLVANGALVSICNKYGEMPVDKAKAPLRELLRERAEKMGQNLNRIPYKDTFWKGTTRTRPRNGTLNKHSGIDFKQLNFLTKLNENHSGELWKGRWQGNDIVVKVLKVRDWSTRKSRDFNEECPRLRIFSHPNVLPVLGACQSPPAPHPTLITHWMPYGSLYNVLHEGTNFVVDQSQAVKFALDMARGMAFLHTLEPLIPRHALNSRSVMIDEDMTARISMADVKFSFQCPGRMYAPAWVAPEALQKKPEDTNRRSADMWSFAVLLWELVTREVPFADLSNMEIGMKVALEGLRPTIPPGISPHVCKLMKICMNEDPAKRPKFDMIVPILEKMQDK

[1] = target: T3, Bifunctional phosphoribosylaminoimidazole carboxylase/phosphoribosylaminoimidazole succinocarboxamide synthetase (Homo sapiens, UniProt P22234)
T3 sequence (P22234 whole entry): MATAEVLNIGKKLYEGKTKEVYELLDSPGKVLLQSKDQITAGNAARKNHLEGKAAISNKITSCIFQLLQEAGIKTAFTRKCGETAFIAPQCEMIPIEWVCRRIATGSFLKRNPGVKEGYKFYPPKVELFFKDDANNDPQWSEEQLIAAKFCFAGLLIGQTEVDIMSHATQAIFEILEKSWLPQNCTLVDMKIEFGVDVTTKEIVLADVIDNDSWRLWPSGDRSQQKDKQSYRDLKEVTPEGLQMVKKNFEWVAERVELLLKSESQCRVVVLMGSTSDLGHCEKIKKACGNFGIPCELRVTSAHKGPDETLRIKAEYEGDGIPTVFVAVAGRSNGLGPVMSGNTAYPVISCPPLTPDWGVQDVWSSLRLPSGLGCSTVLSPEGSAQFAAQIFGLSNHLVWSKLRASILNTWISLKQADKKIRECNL

[2] = target: T4, Non-receptor tyrosine-protein kinase TNK1 (Homo sapiens, UniProt Q13470)
T4 sequence (Q13470 whole entry): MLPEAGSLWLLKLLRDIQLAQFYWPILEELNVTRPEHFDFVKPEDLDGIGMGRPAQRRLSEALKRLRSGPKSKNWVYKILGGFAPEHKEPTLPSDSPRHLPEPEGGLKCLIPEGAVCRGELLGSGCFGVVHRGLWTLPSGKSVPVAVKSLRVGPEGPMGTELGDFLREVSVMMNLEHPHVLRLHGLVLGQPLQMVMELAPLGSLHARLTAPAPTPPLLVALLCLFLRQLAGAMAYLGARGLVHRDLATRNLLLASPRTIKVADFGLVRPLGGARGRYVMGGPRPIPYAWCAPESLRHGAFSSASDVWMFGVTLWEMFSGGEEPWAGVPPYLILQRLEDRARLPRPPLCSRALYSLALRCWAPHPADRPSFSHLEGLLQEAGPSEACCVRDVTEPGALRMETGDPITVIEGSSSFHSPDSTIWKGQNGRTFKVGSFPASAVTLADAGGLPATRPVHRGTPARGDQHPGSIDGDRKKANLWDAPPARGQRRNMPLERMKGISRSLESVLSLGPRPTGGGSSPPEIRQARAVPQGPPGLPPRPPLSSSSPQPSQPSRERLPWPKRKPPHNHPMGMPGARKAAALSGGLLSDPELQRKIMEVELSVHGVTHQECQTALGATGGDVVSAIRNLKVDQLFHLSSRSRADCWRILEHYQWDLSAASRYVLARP

[3] = target: T5, Tyrosine--tRNA ligase, cytoplasmic (Homo sapiens, UniProt P54577)
T5 sequence (P54577 whole entry): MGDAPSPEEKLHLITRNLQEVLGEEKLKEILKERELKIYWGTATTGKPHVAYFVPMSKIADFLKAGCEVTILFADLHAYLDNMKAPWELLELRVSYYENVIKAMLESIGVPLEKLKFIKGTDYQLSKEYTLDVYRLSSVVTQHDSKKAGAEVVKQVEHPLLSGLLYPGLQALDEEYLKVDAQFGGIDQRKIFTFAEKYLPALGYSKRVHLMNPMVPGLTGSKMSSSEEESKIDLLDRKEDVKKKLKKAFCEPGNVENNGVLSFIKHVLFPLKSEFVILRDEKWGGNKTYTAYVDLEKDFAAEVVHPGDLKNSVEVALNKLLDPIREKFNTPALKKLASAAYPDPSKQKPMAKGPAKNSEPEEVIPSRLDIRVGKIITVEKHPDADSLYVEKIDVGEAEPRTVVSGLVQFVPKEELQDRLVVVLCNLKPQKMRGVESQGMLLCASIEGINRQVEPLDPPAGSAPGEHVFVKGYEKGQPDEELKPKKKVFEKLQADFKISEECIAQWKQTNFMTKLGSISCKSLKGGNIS

Measured: Kd
Further: in the data inactive means no Kd found up to 30 µM.

O=C(Nc1ccc(-c2ccnc(Nc3ccc(N4CCOCC4)cc3)n2)cc1)C1CCCN1 (stereo not given) [XL-019]
inactive: dCTP pyrophosphatase 1 > 30 µM | Scaffold protein ILK > 30 µM | [1] > 30 µM | [2] > 30 µM | [3] > 30 µM

CN1CCC(COc2cnc(-c3cccc(Cn4nc(-c5cccc(C#N)c5)ccc4=O)c3)nc2)CC1 [TEPOTINIB]
inactive: dCTP pyrophosphatase 1 > 30 µM | Scaffold protein ILK > 30 µM | [1] > 30 µM | [2] > 30 µM | [3] > 30 µM

COc1cc2nccc(Oc3ccc(NC(=O)NC4CC4)c(Cl)c3)c2cc1C(N)=O [LENVATINIB]
inactive: dCTP pyrophosphatase 1 > 30 µM | Scaffold protein ILK > 30 µM | [1] > 30 µM | [2] > 30 µM | [3] > 30 µM

CCn1c(=O)c(-c2cc[nH]n2)cc2c(C)nc(N)nc21 [VOXTALISIB]
inactive: dCTP pyrophosphatase 1 > 30 µM | Scaffold protein ILK > 30 µM | [1] > 30 µM | [2] > 30 µM | [3] > 30 µM

Cn1cc(-c2ccc(F)c(C(F)(F)F)c2)nc1C1CCN(c2ncnc3[nH]ncc23)CC1 [LY-2584702]
inactive: dCTP pyrophosphatase 1 > 30 µM | Scaffold protein ILK > 30 µM | [1] > 30 µM | [2] > 30 µM | [3] > 30 µM

Cc1cc2c(F)c(Oc3ncnn4cc(OC[C@@H](C)OC(=O)[C@H](C)N)c(C)c34)ccc2[nH]1 [BRIVANIB ALANINATE]
inactive: dCTP pyrophosphatase 1 > 30 µM | Scaffold protein ILK > 30 µM | [1] > 30 µM | [2] > 30 µM | [3] > 30 µM

CNC(=O)c1ccc(C)c(-n2c(C)cc(OCc3ccc(F)cc3F)c(Br)c2=O)c1 [PH-797804]
inactive: dCTP pyrophosphatase 1 > 30 µM | Scaffold protein ILK > 30 µM | [1] > 30 µM | [2] > 30 µM | [3] > 30 µM

CNC(=O)c1cc(Oc2ccc(NC(=O)Nc3ccc(Cl)c(C(F)(F)F)c3)c(F)c2)ccn1 [REGORAFENIB]
inactive: dCTP pyrophosphatase 1 > 30 µM | Scaffold protein ILK > 30 µM | [1] > 30 µM | [2] > 30 µM | [3] > 30 µM

COC(=O)N[C@@H](C)CNc1nccc(-c2cn(C(C)C)nc2-c2cc(Cl)cc(NS(C)(=O)=O)c2F)n1 [ENCORAFENIB]
inactive: dCTP pyrophosphatase 1 > 30 µM | Scaffold protein ILK > 30 µM | [1] > 30 µM | [2] > 30 µM | [3] > 30 µM

Cc1c(F)cc(C(=O)NC2CC2)cc1-c1ccc(C(=O)NCC(C)(C)C)cn1 [LOSMAPIMOD]
inactive: dCTP pyrophosphatase 1 > 30 µM | Scaffold protein ILK > 30 µM | [1] > 30 µM | [2] > 30 µM | [3] > 30 µM

Cc1cc(-c2cc(O)ccc2Cl)cc2nnc(Nc3ccc(OCCN4CCCC4)cc3)nc12
inactive: dCTP pyrophosphatase 1 > 30 µM | Scaffold protein ILK > 30 µM | [1] > 30 µM | [2] > 30 µM | [3] > 30 µM

O=C1NC(=O)/C(=C/c2ccc3nccc(-c4ccncc4)c3c2)S1 [GSK-1059615]
inactive: dCTP pyrophosphatase 1 > 30 µM | Scaffold protein ILK > 30 µM | [1] > 30 µM | [2] > 30 µM | [3] > 30 µM

CC[C@@H]1C(=O)N(C)c2cnc(Nc3ccc(C(=O)N[C@H]4CC[C@H](N5CCN(CC6CC6)CC5)CC4)cc3OC)nc2N1C(C)C [VOLASERTIB]
inactive: dCTP pyrophosphatase 1 > 30 µM | Scaffold protein ILK > 30 µM | [1] > 30 µM | [2] > 30 µM | [3] > 30 µM

CO[C@H]1C[C@@H]2CC[C@@H](C)[C@@](O)(O2)C(=O)C(=O)N2CCCC[C@H]2C(=O)O[C@H]([C@H](C)C[C@@H]2CC[C@@H](OCCO)[C@H](OC)C2)CC(=O)[C@H](C)/C=C(\C)[C@@H](O)[C@@H](OC)C(=O)[C@H](C)C[C@H](C)/C=C/C=C/C=C/1C [EVEROLIMUS]
inactive: dCTP pyrophosphatase 1 > 30 µM | Scaffold protein ILK > 30 µM | [1] > 30 µM | [2] > 30 µM | [3] > 30 µM

CN(C)C(=O)c1cc2cnc(Nc3ccc(N4CCNCC4)cn3)nc2n1C1CCCC1 [RIBOCICLIB]
inactive: dCTP pyrophosphatase 1 > 30 µM | Scaffold protein ILK > 30 µM | [1] > 30 µM | [2] > 30 µM | [3] > 30 µM

CC(C)Nc1cc(-c2c[nH]c(C(=O)N[C@H](CO)c3cccc(Cl)c3)c2)c(Cl)cn1 [ULIXERTINIB]
inactive: dCTP pyrophosphatase 1 > 30 µM | Scaffold protein ILK > 30 µM | [1] > 30 µM | [2] > 30 µM | [3] > 30 µM
